Drawing on patent publication US6943172B2, “Rho-kinase inhibitors” (Bayer Pharmaceuticals Corporation, priority 2002, dated 2005), this text covers melting point for one compound.

SMILES strings stand for the structures.

A word on the melting point: it is the temperature of the solid-liquid transition. With `CCc1cc(Nc2ccc(Sc3ccncc3)cc2)nc(N)n1` [Example 42, N-(2-amino-6-ethyl-4-pyrimidinyl)-N-[4-(4-pyridinylsulfanyl)phenyl]amine], the melting point was in the range of 181 to 186 °C.
